Data as given in PubChem BioAssay AID256 (DTP/NCI, 2004).
“And” between values parts separate entries of the source, which are not always exact repeats. Equal entries are not always repeated. Inconclusive results and toxic doses are left out. Rule for the calls: active = survival T/C of 150% or more; inactive = T/C below 125% in these data.

Test system: CD2F1 mice, L1210 leukemia ip, survival T/C
Experiment: NCI In Vivo Anticancer Drug Screen. Data for tumor model L1210 Leukemia (intraperitoneal) in CD2F1 (CDF1) mice
Conditions: endpoint: mean survival time, higher = longer survival
How it was run: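 In this screen, transplantable tumors were grown in mice given either the compound or its vehicle. Results were expressed as the treated measurement relative to the control measurement.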

[1] = dose: 75.0 mg/kg/injection, schedule: Q01DX001 (ip), vehicle: saline
[2] = dose: 25.0 mg/kg/injection, schedule: Q04DX003 (ip), vehicle: saline with Tween-80
[3] = dose: 100.0 mg/kg/injection, schedule: Q04DX003 (ip), vehicle: saline with Tween-80
[4] = dose: 200.0 mg/kg/injection, schedule: Q04DX003 (ip), vehicle: saline with Tween-80
[5] = dose: 400.0 mg/kg/injection, schedule: Q04DX003 (ip), vehicle: saline with Tween-80
[6] = dose: 100.0 mg/kg/injection, schedule: Q01DX009 (ip), vehicle: saline with Tween-80
[7] = dose: 200.0 mg/kg/injection, schedule: Q01DX009 (ip), vehicle: saline with Tween-80
[8] = dose: 400.0 mg/kg/injection, schedule: Q01DX009 (ip), vehicle: saline with Tween-80
[9] = dose: 100.0 mg/kg/injection, schedule: Q04DX002 (ip), vehicle: saline with Tween-80
[10] = dose: 200.0 mg/kg/injection, schedule: Q04DX002 (ip), vehicle: saline with Tween-80
[11] = dose: 50.0 mg/kg/injection, schedule: Q04DX002 (ip), vehicle: saline with Tween-80

Measured: T/C

O=C(O)/C=C/S(=O)(=O)O
inactive: dose: 9.5 mg/kg/injection, schedule: Q01DX001 (ip), vehicle: saline 96 % of control | dose: 19.0 mg/kg/injection, schedule: Q01DX001 (ip), vehicle: saline 98 % of control | dose: 38.0 mg/kg/injection, schedule: Q01DX001 (ip), vehicle: saline 98 % of control | [1] 100 % of control

CNC(Cc1ccccc1)c1ccccc1 (stereo not given)
inactive: [2] 91 % of control | dose: 50.0 mg/kg/injection, schedule: Q04DX003 (ip), vehicle: saline with Tween-80 93 % of control | [3] 95 % of control and 97 % of control

O=C(N/N=C/c1ccc2c(c1)CCC2)c1ccccc1[N+](=O)[O-]
inactive: dose: 100.0 mg/kg/injection, schedule: Q01DX001 (ip), vehicle: Klucel (hydroxypropylcellulose) (HPC) 95 % of control | dose: 200.0 mg/kg/injection, schedule: Q01DX001 (ip), vehicle: Klucel (hydroxypropylcellulose) (HPC) 94 % of control | [4] 89 % of control | dose: 400.0 mg/kg/injection, schedule: Q01DX001 (ip), vehicle: Klucel (hydroxypropylcellulose) (HPC) 97 % of control | [5] 96 % of control

Clc1ccc(C(=Cc2ccccc2)c2ccc(Cl)cc2)cc1
inactive: [6] 102 % of control | [3] 90 % of control | [7] 93 % of control | [4] 93 % of control | [8] 96 % of control | [5] 97 % of control

Nc1ccc(-c2c(N)nc(Br)c3ccccc23)cc1
inactive: dose: 50.0 mg/kg/injection, schedule: Q04DX003 (ip), vehicle: DMSO 98 % of control | dose: 100.0 mg/kg/injection, schedule: Q04DX003 (ip), vehicle: DMSO 93 % of control | dose: 200.0 mg/kg/injection, schedule: Q04DX003 (ip), vehicle: DMSO 110 % of control | dose: 400.0 mg/kg/injection, schedule: Q04DX003 (ip), vehicle: DMSO 104 % of control

COc1ccc(NC(=O)Nc2ccccc2OC)c(Cl)c1
inactive: [9] 94 % of control | [10] 87 % of control | dose: 400.0 mg/kg/injection, schedule: Q04DX002 (ip), vehicle: saline with Tween-80 97 % of control

Nc1ccccc1C(=O)C/C=C/c1ccccc1
inactive: dose: 100.0 mg/kg/injection, schedule: Q01DX001 (ip), vehicle: saline with Tween-80 95 % of control | dose: 200.0 mg/kg/injection, schedule: Q01DX001 (ip), vehicle: saline with Tween-80 91 % of control | dose: 400.0 mg/kg/injection, schedule: Q01DX001 (ip), vehicle: saline with Tween-80 87 % of control

CCN1CCSC1=S
inactive: dose: 75.0 mg/kg/injection, schedule: Q01DX001 (ip), vehicle: other 102 % of control | dose: 150.0 mg/kg/injection, schedule: Q01DX001 (ip), vehicle: other 100 % of control | dose: 300.0 mg/kg/injection, schedule: Q01DX001 (ip), vehicle: other 103 % of control

COC(=O)C1(C)CCCC2(C)c3cc(OC)ccc3C=CC12 (stereo not given)
inactive: [6] 104 % of control | [7] 106 % of control | [8] 103 % of control

CCCCCCCCCCCCNC(=O)C[n+]1cccc(C(=O)Nc2ccccc2)c1
inactive: dose: 6.25 mg/kg/injection, schedule: Q01DX009 (ip), vehicle: saline with Tween-80 97 % of control | dose: 6.25 mg/kg/injection, schedule: Q04DX003 (ip), vehicle: saline with Tween-80 106 % of control | dose: 12.5 mg/kg/injection, schedule: Q01DX009 (ip), vehicle: saline with Tween-80 97 % of control | dose: 12.5 mg/kg/injection, schedule: Q04DX003 (ip), vehicle: saline with Tween-80 100 % of control | [2] 106 % of control

COc1ccc(NC(=O)Nc2ccccc2F)cc1
inactive: [3] 102 % of control | [4] 101 % of control | [5] 95 % of control

O=S1(=O)C[CH-]C1.[C-]#[O+].[C-]#[O+].[C-]#[O+].[W].[c-]1[c-][c-][cH-][c-]1
inactive: [11] 93 % of control | [9] 101 % of control | [10] 89 % of control

CC(C)(C)C(=O)/C=C/c1ccccc1
inactive: dose: 50.0 mg/kg/injection, schedule: Q04DX003 (ip), vehicle: Klucel (hydroxypropylcellulose) (HPC) 96 % of control | dose: 100.0 mg/kg/injection, schedule: Q04DX003 (ip), vehicle: Klucel (hydroxypropylcellulose) (HPC) 98 % of control and 102 % of control | dose: 200.0 mg/kg/injection, schedule: Q04DX003 (ip), vehicle: Klucel (hydroxypropylcellulose) (HPC) 98 % of control and 110 % of control | dose: 400.0 mg/kg/injection, schedule: Q04DX003 (ip), vehicle: Klucel (hydroxypropylcellulose) (HPC) 106 % of control

COc1ccc(C(=O)C(Br)Br)cc1OC
inactive: dose: 3.13 mg/kg/injection, schedule: Q04DX002 (ip), vehicle: saline with Tween-80 112 % of control | dose: 6.25 mg/kg/injection, schedule: Q04DX002 (ip), vehicle: saline with Tween-80 100 % of control | dose: 12.5 mg/kg/injection, schedule: Q04DX002 (ip), vehicle: saline with Tween-80 100 % of control

O=C1C2CCN(CC2)C1CN1CCC2(CC1)C(=O)NCN2c1ccccc1 (stereo not given)
inactive: [11] 93 % of control | [9] 112 % of control

O=C(O)c1[nH]c2c([N+](=O)[O-])cc([N+](=O)[O-])cc2c1C(=O)O
inactive: [1] 103 % of control | dose: 150.0 mg/kg/injection, schedule: Q01DX001 (ip), vehicle: saline 97 % of control

O=C(O)CNC(=O)C(Br)Cc1ccccc1 (stereo not given)
inactive: [3] 101 % of control | [4] 101 % of control | [5] 103 % of control

CC1(C)C=CC(=O)c2ccccc21
inactive: [3] 94 % of control | [4] 100 % of control | [5] 101 % of control

[Co].c1ccc2c3[n-]c(c2c1)/N=c1\[n-]/c(c2ccccc12)=N\c1[n-]c(c2ccccc12)/N=c1\[n-]/c(c2ccccc12)=N\3
inactive: dose: 25.0 mg/kg/injection, schedule: Q04DX002 (ip), vehicle: saline with Tween-80 90 % of control | [11] 93 % of control | [9] 90 % of control

CC(=O)OCC1OC(OC2=C(CC=C(C)C)C(=O)c3ccccc3C2=O)C(OC(C)=O)C(OC(C)=O)C1OC(C)=O (stereo not given)
inactive: dose: 6.25 mg/kg/injection, schedule: Q01DX009 (ip), vehicle: Klucel (hydroxypropylcellulose) (HPC) 108 % of control | dose: 12.5 mg/kg/injection, schedule: Q01DX009 (ip), vehicle: Klucel (hydroxypropylcellulose) (HPC) 101 % of control and 108 % of control | dose: 25.0 mg/kg/injection, schedule: Q01DX009 (ip), vehicle: Klucel (hydroxypropylcellulose) (HPC) 101 % of control and 108 % of control | dose: 50.0 mg/kg/injection, schedule: Q01DX009 (ip), vehicle: Klucel (hydroxypropylcellulose) (HPC) 101 % of control | dose: 100.0 mg/kg/injection, schedule: Q01DX009 (ip), vehicle: Klucel (hydroxypropylcellulose) (HPC) 92 % of control and 102 % of control | dose: 200.0 mg/kg/injection, schedule: Q01DX009 (ip), vehicle: Klucel (hydroxypropylcellulose) (HPC) 89 % of control and 96 % of control

O=C(CCCl)c1ccccc1
inactive: dose: 25.0 mg/kg/injection, schedule: Q01DX009 (ip), vehicle: other 104 % of control | dose: 50.0 mg/kg/injection, schedule: Q01DX009 (ip), vehicle: other 100 % of control | dose: 100.0 mg/kg/injection, schedule: Q01DX009 (ip), vehicle: other 92 % of control and 96 % of control

Brc1c(Br)c(Br)c2n[nH]nc2c1Br
inactive: dose: 50.0 mg/kg/injection, schedule: Q01DX009 (ip), vehicle: saline 104 % of control | dose: 100.0 mg/kg/injection, schedule: Q01DX009 (ip), vehicle: saline 104 % of control | dose: 200.0 mg/kg/injection, schedule: Q01DX009 (ip), vehicle: saline 108 % of control

OCC(Cl)(Cl)Cl
inactive: [3] 93 % of control | [4] 97 % of control | [5] 101 % of control
